Assay results as given in patent EP0007672A1, “Isocyanoalkenes, process and useful intermediates for their preparation, pharmaceutical and fungicidal preparations containing those isocyanoalkenes and the use of the fungicidal preparations in agriculture” (GIST-BROCADES N.V., priority 1978, dated 1980).
In brackets after ≈: the same amount, converted by molar mass. Read-outs that look alike come from different tables or passages of the source.

Legend:
Experiment in all cases: MIC (Minimum Inhibitory Concentration)
Type in all cases: cell-based
Candida albicans = test system: Candida albicans
Excerpt: (§1) In addition they may be used for combatting plant diseases, in particular as fungicides. A list of MIC (Minimum Inhibitory Concentration) values for a number of microorganisms is listed herebelow. The figures in the column headings refer to the compounds prepared according to the experimental examples in comparison with the spectrum of 1-[2-(2,4-dichlorophenyl)-2-{(2,4-dichlorophenyl)-methoxy} -ethyl7-1H-imidazole (better known under the name of miconazole, c.f. Merck Index 9th Ed. page 6047) or natamycin (pimaricin, c.f. Merck Index 9th Ed. page 7233).

Trichophyton equinum = test system: Trichophyton equinum
Excerpt: as §1

[1] = test system: Streptococcus haemolyticus; conditions: read-out: MIC values
Excerpt: as §1

Trichophyton verrucosum = test system: Trichophyton verrucosum
Excerpt: as §1

[2] = test system: Trichophyton schoenleinii; conditions: read-out: MIC values
Excerpt: as §1

Trichophyton violoceum = conditions: read-out: MIC values
Excerpt: as §1

Trichophyton quickeaneum = conditions: read-out: MIC values
Excerpt: as §1

[3] = test system: Trichophyton mentagrophytus
Excerpt: as §1

Trichophyton rubrum = test system: Trichophyton rubrum
Excerpt: as §1

Pasteurella multocida = conditions: read-out: MIC values
Excerpt: as §1

Trichophyton tonsurans = conditions: read-out: MIC values
Excerpt: as §1

[4] = read-out: MIC values, Candida albicans A 7
[5] = read-out: MIC values, Candida albicans A 3140
[6] = read-out: MIC values, Candida albicans A 3141
[7] = read-out: MIC values, Candida albicans A 3142
[8] = read-out: MIC values, Candida albicans A 3143
[9] = read-out: MIC values, Candida albicans A 3144
[10] = read-out: MIC values, Candida albicans A 3145
[11] = read-out: MIC values, Candida albicans A 3165
[12] = read-out: MIC values, Candida albicans A 3166
[13] = read-out: MIC values, Candida albicans A 3167
[14] = read-out: MIC values, Candida albicans A 3168
[15] = read-out: MIC values, Candida albicans A 3169
[16] = read-out: MIC values, Candida albicans A 3171
[17] = read-out: MIC values, Candida albicans A 3184
[18] = read-out: MIC values, Candida albicans A 3190
[19] = read-out: MIC values, Candida albicans A 3191
[20] = read-out: MIC values, Candida albicans A 3192
[21] = read-out: MIC values, Candida albicans A 3194
[22] = read-out: MIC values, Candida albicans A 3196
[23] = read-out: MIC values, Trichophyton equinum 182-76
[24] = read-out: MIC values, Trichophyton equinum 856-71
[25] = read-out: MIC values, Trichophyton mentagrophytus 367-68
[26] = read-out: MIC values, Trichophyton mentagrophytus 421-67
[27] = read-out: MIC values, Trichophyton mentagrophytus A 3252
[28] = read-out: MIC values, Trichophyton mentagrophytus R 177
[29] = read-out: MIC values, Trichophyton mentagrophytus R 178
[30] = read-out: MIC values, Trichophyton mentagrophytus RRL 305
[31] = read-out: MIC values, Trichophyton rubrum 218-65
[32] = read-out: MIC values, Trichophyton rubrum 494-62

[C-]#[N+]C(C1=CCCCCC1)S(=O)(=O)c1ccc(C)cc1 (stereo not shown) [Example 18b, a-(cyclohepten-1-yl)-a-(4-toluenesulphonyl)-methylisocyanide]
MIC (Candida albicans; [4]): 6 µg/mL (≈ 20.7 µM) | MIC (Candida albicans; [5]): 6 µg/mL (≈ 20.7 µM) | MIC (Candida albicans; [6]): 12.5 µg/mL (≈ 43.2 µM) | MIC (Candida albicans; [7]): 12.5 µg/mL (≈ 43.2 µM) | MIC (Candida albicans; [8]): 12.5 µg/mL (≈ 43.2 µM) | MIC (Candida albicans; [9]): 12.5 µg/mL (≈ 43.2 µM) | MIC (Candida albicans; [10]): 6 µg/mL (≈ 20.7 µM) | MIC (Candida albicans; [11]): 12.5 µg/mL (≈ 43.2 µM) | MIC (Candida albicans; [12]): 12.5 µg/mL (≈ 43.2 µM) | MIC (Candida albicans; [13]): 12.5 µg/mL (≈ 43.2 µM) | MIC (Candida albicans; [14]): 6 µg/mL (≈ 20.7 µM) | MIC (Candida albicans; [15]): 12.5 µg/mL (≈ 43.2 µM) | MIC (Candida albicans; [16]): 12.5 µg/mL (≈ 43.2 µM) | MIC (Candida albicans; [17]): 12.5 µg/mL (≈ 43.2 µM) | MIC (Candida albicans; [18]): 12.5 µg/mL (≈ 43.2 µM) | MIC (Candida albicans; [19]): 12.5 µg/mL (≈ 43.2 µM) | MIC (Candida albicans; [20]): 12.5 µg/mL (≈ 43.2 µM) | MIC (Candida albicans; [21]): 25 µg/mL (≈ 86.4 µM) | MIC (Candida albicans; [22]): 12.5 µg/mL (≈ 43.2 µM) | MIC (Trichophyton equinum; [23]): > 100 µg/mL | MIC (Trichophyton equinum; read-out: MIC values, Trichophyton equinum 441-51): < 0.05 µg/mL | MIC (Trichophyton equinum; [24]): 100 µg/mL (≈ 346 µM) | MIC ([1]; Streptococcus): 25 µg/mL (≈ 86.4 µM) | MIC (Trichophyton verrucosum; read-out: MIC values, Trichophyton verrucosum 134-66): 3 µg/mL (≈ 10.4 µM) | MIC (Trichophyton verrucosum; read-out: MIC values, Trichophyton verrucosum A 2922): 12.5 µg/mL (≈ 43.2 µM) | MIC ([2]; Trichophyton schoenleinii): 6 µg/mL (≈ 20.7 µM) | MIC (Trichophyton violoceum; Trichophyton): 6 µg/mL (≈ 20.7 µM) | MIC (Trichophyton quickeaneum; Trichophyton): 25 µg/mL (≈ 86.4 µM) | MIC [3, 25]: 25 µg/mL (≈ 86.4 µM) | MIC [3, 26]: > 100 µg/mL | MIC [3, 27]: > 100 µg/mL | MIC [3, 28]: > 100 µg/mL | MIC [3, 29]: > 100 µg/mL | MIC [3, 30]: > 100 µg/mL | MIC (Trichophyton rubrum; [31]): 100 µg/mL (≈ 346 µM) | MIC (Trichophyton rubrum; [32]): > 100 µg/mL | MIC (Pasteurella multocida; Pasteurella multocida): 50 µg/mL (≈ 173 µM)

[C-]#[N+]C(=CCCC)S(=O)(=O)c1ccc(C)cc1 [Example 24, 1-isocyano-1-(4-toluenesulphonyl)-1-pentene]
MIC (Candida albicans; Candida albicans A 7, read-out: MIC values): 25 µg/mL (≈ 100 µM) | MIC (Candida albicans; Candida albicans A 3140, read-out: MIC values): 25 µg/mL (≈ 100 µM) | MIC (Candida albicans; Candida albicans A 3141, read-out: MIC values): 25 µg/mL (≈ 100 µM) | MIC (Candida albicans; Candida albicans A 3142, read-out: MIC values): 3 µg/mL (≈ 12 µM) | MIC (Candida albicans; Candida albicans A 3143, read-out: MIC values): 12.5 µg/mL (≈ 50.1 µM) | MIC (Candida albicans; Candida albicans A 3144, read-out: MIC values): 12.5 µg/mL (≈ 50.1 µM) | MIC (Candida albicans; Candida albicans A 3145, read-out: MIC values): 12.5 µg/mL (≈ 50.1 µM) | MIC (Candida albicans; Candida albicans A 3165, read-out: MIC values): 25 µg/mL (≈ 100 µM) | MIC (Candida albicans; Candida albicans A 3166, read-out: MIC values): 50 µg/mL (≈ 201 µM) | MIC (Candida albicans; Candida albicans A 3167, read-out: MIC values): 50 µg/mL (≈ 201 µM) | MIC (Candida albicans; Candida albicans A 3168, read-out: MIC values): 50 µg/mL (≈ 201 µM) | MIC (Candida albicans; Candida albicans A 3169, read-out: MIC values): 25 µg/mL (≈ 100 µM) | MIC (Candida albicans; Candida albicans A 3171, read-out: MIC values): 25 µg/mL (≈ 100 µM) | MIC (Candida albicans; Candida albicans A 3184, read-out: MIC values): 25 µg/mL (≈ 100 µM) | MIC (Candida albicans; Candida albicans A 3190, read-out: MIC values): 25 µg/mL (≈ 100 µM) | MIC (Candida albicans; Candida albicans A 3191, read-out: MIC values): 25 µg/mL (≈ 100 µM) | MIC (Candida albicans; Candida albicans A 3192, read-out: MIC values): 25 µg/mL (≈ 100 µM) | MIC (Candida albicans; Candida albicans A 3194, read-out: MIC values): 25 µg/mL (≈ 100 µM) | MIC (Candida albicans; Candida albicans A 3196, read-out: MIC values): 25 µg/mL (≈ 100 µM) | MIC (Trichophyton equinum; Trichophyton equinum 182-76, read-out: MIC values): 50 µg/mL (≈ 201 µM) | MIC (Trichophyton equinum; Trichophyton equinum 856-71, read-out: MIC values): 50 µg/mL (≈ 201 µM) | MIC ([1]; Streptococcus haemolyticus A 1088): 100 µg/mL (≈ 401 µM) | MIC (Trichophyton tonsurans; Trichophyton tonsurans 561-50): 25 µg/mL (≈ 100 µM) | MIC ([2]; Trichophyton schoenleinii 435-63): 25 µg/mL (≈ 100 µM) | MIC (Trichophyton violoceum; Trichophyton violoceum 442-62): 25 µg/mL (≈ 100 µM) | MIC (Trichophyton quickeaneum; Trichophyton quickeaneum A 2040): 100 µg/mL (≈ 401 µM) | MIC ([3]; Trichophyton mentagrophytus 367-68, read-out: MIC values): 100 µg/mL (≈ 401 µM) | MIC ([3]; Trichophyton mentagrophytus 421-67, read-out: MIC values): 50 µg/mL (≈ 201 µM) | MIC ([3]; Trichophyton mentagrophytus A 3252, read-out: MIC values): 25 µg/mL (≈ 100 µM) | MIC ([3]; Trichophyton mentagrophytus R 177, read-out: MIC values): 25 µg/mL (≈ 100 µM) | MIC ([3]; Trichophyton mentagrophytus R 178, read-out: MIC values): 25 µg/mL (≈ 100 µM) | MIC ([3]; Trichophyton mentagrophytus RRL 305, read-out: MIC values): 50 µg/mL (≈ 201 µM) | MIC (Trichophyton rubrum; Trichophyton rubrum 218-65, read-out: MIC values): 25 µg/mL (≈ 100 µM) | MIC (Trichophyton rubrum; Trichophyton rubrum 494-62, read-out: MIC values): 50 µg/mL (≈ 201 µM) | MIC (Trichophyton rubrum; Trichophyton rubrum A 810, read-out: MIC values): 25 µg/mL (≈ 100 µM) | MIC (Pasteurella multocida; Pasteurella multocida A 723): 50 µg/mL (≈ 201 µM)

[C-]#[N+]C(=C1CCCCC1)S(=O)(=O)c1ccccc1 [Example 25, a-cyclohexylidene-a-benzenesulphonylmethyl-isocyanide]
MIC (Candida albicans; [4]): 1.5 µg/mL (≈ 5.74 µM) | MIC (Candida albicans; [5]): 1.5 µg/mL (≈ 5.74 µM) | MIC (Candida albicans; [6]): 1.5 µg/mL (≈ 5.74 µM) | MIC (Candida albicans; [7]): 1.5 µg/mL (≈ 5.74 µM) | MIC (Candida albicans; [8]): 1.5 µg/mL (≈ 5.74 µM) | MIC (Candida albicans; [9]): 3 µg/mL (≈ 11.5 µM) | MIC (Candida albicans; [10]): 3 µg/mL (≈ 11.5 µM) | MIC (Candida albicans; [11]): 3 µg/mL (≈ 11.5 µM) | MIC (Candida albicans; [12]): 1.5 µg/mL (≈ 5.74 µM) | MIC (Candida albicans; [13]): 3 µg/mL (≈ 11.5 µM) | MIC (Candida albicans; [14]): 6 µg/mL (≈ 23 µM) | MIC (Candida albicans; [15]): 1.5 µg/mL (≈ 5.74 µM) | MIC (Candida albicans; [16]): 3 µg/mL (≈ 11.5 µM) | MIC (Candida albicans; [17]): 1.5 µg/mL (≈ 5.74 µM) | MIC (Candida albicans; [18]): 3 µg/mL (≈ 11.5 µM) | MIC (Candida albicans; [19]): 6 µg/mL (≈ 23 µM) | MIC (Candida albicans; [20]): 1.5 µg/mL (≈ 5.74 µM) | MIC (Candida albicans; [21]): 3 µg/mL (≈ 11.5 µM) | MIC (Candida albicans; [22]): 3 µg/mL (≈ 11.5 µM) | MIC (Trichophyton equinum; [23]): 6 µg/mL (≈ 23 µM) | MIC (Trichophyton equinum; [24]): 12.5 µg/mL (≈ 47.8 µM) | MIC ([1]; Streptococcus): 25 µg/mL (≈ 95.7 µM) | MIC (Trichophyton tonsurans; Trichophyton tonsurans): 0.2 µg/mL (≈ 0.765 µM) | MIC ([2]; Trichophyton schoenleinii): 0.8 µg/mL (≈ 3.06 µM) | MIC (Trichophyton violoceum; Trichophyton): 3 µg/mL (≈ 11.5 µM) | MIC (Trichophyton quickeaneum; Trichophyton): 3 µg/mL (≈ 11.5 µM) | MIC [3, 25]: 1.5 µg/mL (≈ 5.74 µM) | MIC [3, 26]: 1.5 µg/mL (≈ 5.74 µM) | MIC [3, 27]: 3 µg/mL (≈ 11.5 µM) | MIC [3, 28]: 3 µg/mL (≈ 11.5 µM) | MIC [3, 29]: 3 µg/mL (≈ 11.5 µM) | MIC [3, 30]: 3 µg/mL (≈ 11.5 µM) | MIC (Trichophyton rubrum; [31]): 0.4 µg/mL (≈ 1.53 µM) | MIC (Trichophyton rubrum; [32]): 6 µg/mL (≈ 23 µM) | MIC (Trichophyton rubrum; read-out: MIC values, Trichophyton rubrum A 810): 0.4 µg/mL (≈ 1.53 µM) | MIC (Pasteurella multocida; Pasteurella multocida): 3 µg/mL (≈ 11.5 µM)
